In brackets after ≈: the same amount, converted by molar mass.
What was measured:
Test in all cases: In vitro antibacterial activity, MIC by agar double dilution method
Format in all cases: cell-based
[1] = test system: Staphylococcus aureus resistant strains (6 strains); conditions: clinical isolates
Source text: (§1) Experimental method: The agar double dilution method (Antimicrob. Agents and Chemother, 40, 1996, 720-726) was used to determine the minimum inhibitory concentration (MIC) of the series of compounds of the invention and the positive control drug linezolid for the test strains. The multipoint inoculation system (Denley A400) was employed to inoculate the bacteria on the agar plate surface with different concentrations of drugs; inoculation amount on each point was about 10^6 CFU/mL. The plates were incubated at 35° C. for 16 hrs before the results were observed. The lowest drug concentration contained in the Petri dish without bacterial growth was used as the minimum inhibitory concentration (MIC value) of the drug fir that strain.
(§2) Test strains: All the test strains were clinically isolated pathogens which were collected from the Nanjing region, and they were re-identified by routine methods before use. 31 strains of the clinically isolated pathogens were chosen, including 6 strains of Enterococcus, 5 Staphylococcus aureus sensitive strains; 5 Staphylococcus epidermidis sensitive strains; 6 Staphylococcus aureus resistant strains; 5 Staphylococcus epidermidis resistant strains; and 4 Streptococcus pneumoniae resistant strains.
(§3) Compounds to be tested were first added 2 ml of DMSO to help them fully dissolved, then added sterile double distilled water to the desired concentration; to all the Petri dish with added drug liquid were added 20 mL MIT medium which was heat-melted to be liquid-like, to make the final drug concentration in the Petri dish to be 64, 32, 16, 8, 4, 2, 1, 0.5, 0.25, 0.125, 0.0625, and 0.031 μg/mL.
(§4) The positive control group was LZ (linezolid, brand name Zyvox, approved by the FDA in 2000 to be firstly sold in the United States, which is the first and also the only one of oxazolidinone antibacterial drugs allowed to enter clinical application).

[2] = test system: Staphylococcus epidermidis resistant strains (5 strains); conditions: clinical isolates
Source text: as §1, §2, §3, §4

[3] = test system: Staphylococcus epidermidis sensitive strains (5 strains); conditions: clinical isolates
Source text: as §1, §2, §3, §4

[4] = test system: Streptococcus pneumoniae resistant strains (4 strains); conditions: clinical isolates
Source text: as §1, §2, §3, §4

[5] = test system: Staphylococcus aureus sensitive strains (5 strains); conditions: clinical isolates
Source text: as §1, §2, §3, §4

[6] = test system: Enterococcus (6 strains); conditions: clinical isolates, 35° C. 16 hrs
Source text: as §1, §2, §3, §4

SMILES	MIC [1]	MIC [2]	MIC [3]	MIC [4]	MIC [5]	MIC [6]
O=C1COCCN1c1ccc(-c2ccc3c(c2)OC[C@H]2[C@H](CO)OC(=O)N32)cn1 [Compound 19, (3R,3aS)-3-(hydroxylmethyl)-7-(6-(3-oxomorpholin)pyridin-3-yl)-3a,4-dihydrobenzo[b]oxazolo[3,4-d][1,4]oxazin-1(3H)-one]	2 to 4 µg/mL (≈ 5.03 to 10.1 µM)	2 to 4 µg/mL (≈ 5.03 to 10.1 µM)	1 to 2 µg/mL (≈ 2.52 to 5.03 µM)	2 to 4 µg/mL (≈ 5.03 to 10.1 µM)	2 to 4 µg/mL (≈ 5.03 to 10.1 µM)	2 to 4 µg/mL (≈ 5.03 to 10.1 µM)
CN1CCN(c2ccc(-c3ccc4c(c3)OC[C@H]3[C@H](CO)OC(=O)N43)cn2)C(=O)C1 [Compound 20, (3R,3aS)-3-(hydroxylmethyl)-7-(6-(4-methyl-2-oxopiperazin-1-yl)pyridin-3-yl)-3a,4-dihydrobenzo[b]oxazolo[3,4-d][1,4]oxazin-1(3H)-one]	2 to 4 µg/mL (≈ 4.87 to 9.75 µM)	2 to 4 µg/mL (≈ 4.87 to 9.75 µM)	2 to 4 µg/mL (≈ 4.87 to 9.75 µM)	4 to 8 µg/mL (≈ 9.75 to 19.5 µM)	2 to 4 µg/mL (≈ 4.87 to 9.75 µM)	16 to 32 µg/mL (≈ 39 to 78 µM)
O=C1OC(CO)CN1c1ccc(-c2ccc3c(c2)OC[C@H]2[C@H](CO)OC(=O)N32)cn1 (stereo partly drawn) [Compound 24, (3R,3aS)-3-(hydroxylmethyl)-7-(6-(5-(hydroxylmethyl)-2-oxooxazolidin-3-yl)pyridin-3-yl)-3a,4-dihydrobenzo[b]oxazolo[3,4-d][1,4]oxazin-1(3H)-one]	0.5 to 1 µg/mL (≈ 1.21 to 2.42 µM)	0.5 to 1 µg/mL (≈ 1.21 to 2.42 µM)	0.25 to 0.5 µg/mL (≈ 0.605 to 1.21 µM)	1 µg/mL (≈ 2.42 µM)	0.5 to 1 µg/mL (≈ 1.21 to 2.42 µM)	0.5 to 1 µg/mL (≈ 1.21 to 2.42 µM)
O=C1O[C@H](CO)CN1c1ccc(-c2ccc3c(c2)OC[C@H]2[C@H](CO)OC(=O)N32)cn1 [Compound 25, (3R,3S)-3-(hydroxylmethyl)-7-(6-((S)-5-(hydroxylmethyl)-2-oxooxazolidin-3-yl)pyridin-3-yl)-3a,4-dihydrobenzo[b]oxazolo[3,4-d][1,4]oxazin-1(3H)-one]	0.5 to 1 µg/mL (≈ 1.21 to 2.42 µM)	0.5 to 1 µg/mL (≈ 1.21 to 2.42 µM)	0.5 to 1 µg/mL (≈ 1.21 to 2.42 µM)	1 µg/mL (≈ 2.42 µM)	0.5 to 1 µg/mL (≈ 1.21 to 2.42 µM)	0.5 to 1 µg/mL (≈ 1.21 to 2.42 µM)
O=C1O[C@@H](CO)CN1c1ccc(-c2ccc3c(c2)OC[C@H]2[C@H](CO)OC(=O)N32)cn1 [Compound 26, (3R,3aS)-3-(hydroxylmethyl)-7-(6-((R)-5-(hydroxylmethyl)-2-oxo-oxazolidin-3-yl)pyridin-3-yl)-3a,4-dihydrobenzo[b]oxazolo[3,4-d][1,4]oxazin-1(3H)-one]	0.5 to 1 µg/mL (≈ 1.21 to 2.42 µM)	0.5 to 1 µg/mL (≈ 1.21 to 2.42 µM)	0.5 to 1 µg/mL (≈ 1.21 to 2.42 µM)	1 µg/mL (≈ 2.42 µM)	0.5 to 1 µg/mL (≈ 1.21 to 2.42 µM)	0.5 to 1 µg/mL (≈ 1.21 to 2.42 µM)
CN1C[C@@H](c2ccc(-c3ccc4c(c3)OC[C@H]3[C@H](CO)OC(=O)N43)cn2)OC1=O [Compound 27, (3R,3aS)-3-(hydroxylmethyl)-7-(6-((R)-3-methyl-2-oxazolidin-5-yl)pyridin-3-yl)-3a,4-dihydrobenzo[b]oxazolo[3,4-d][1,4]oxazin-1(3H)-one]	1 µg/mL (≈ 2.52 µM)	0.5 to 1 µg/mL (≈ 1.26 to 2.52 µM)	1 µg/mL (≈ 2.52 µM)	0.25 to 0.5 µg/mL (≈ 0.629 to 1.26 µM)	1 µg/mL (≈ 2.52 µM)	1 µg/mL (≈ 2.52 µM)
CN1C[C@H](c2ccc(-c3ccc4c(c3)OC[C@H]3[C@H](CO)OC(=O)N43)cn2)OC1=O [Compound 28, (3R,3aS)-3-(hydroxylmethyl)-7-(6-((S)-3-methyl-2-oxazolidin-5-yl)pyridin-3-yl)-3a,4-dihydrobenzo[b]oxazolo[3,4-d][1,4]oxazin-1(3H)-one]	2 µg/mL (≈ 5.03 µM)	1 to 2 µg/mL (≈ 2.52 to 5.03 µM)	2 µg/mL (≈ 5.03 µM)	2 µg/mL (≈ 5.03 µM)	2 µg/mL (≈ 5.03 µM)	2 µg/mL (≈ 5.03 µM)
NC1(c2ccc(-c3ccc4c(c3)OC[C@H]3[C@H](CO)OC(=O)N43)cn2)CC1 [Compound 29, (3R,3aS)-7-(6-(1-aminocyclopropyl)pyridin-3-yl)-3-(hydroxylmethyl)-3a,4-dihydrobenzo[b]oxazolo[3,4-d][1,4]oxazin-1(3H)-one]	1 µg/mL (≈ 2.83 µM)	1 to 2 µg/mL (≈ 2.83 to 5.66 µM)	1 µg/mL (≈ 2.83 µM)	1 to 2 µg/mL (≈ 2.83 to 5.66 µM)	2 to 4 µg/mL (≈ 5.66 to 11.3 µM)	2 µg/mL (≈ 5.66 µM)
NCc1ccc(-c2ccc3c(c2)OC[C@H]2[C@H](CO)OC(=O)N32)cn1 [Compound 30, (3R,3aS)-7-(6-(aminomethyl)pyridin-3-yl)-3-(hydroxylmethyl)-3a,4-dihydrobenzo[b]oxazolo[3,4-d][1,4]oxazin-1(3H)-one]	2 to 4 µg/mL (≈ 6.11 to 12.2 µM)	0.5 to 4 µg/mL (≈ 1.53 to 12.2 µM)	1 to 2 µg/mL (≈ 3.05 to 6.11 µM)	4 to 16 µg/mL (≈ 12.2 to 48.9 µM)	2 to 4 µg/mL (≈ 6.11 to 12.2 µM)	4 to 8 µg/mL (≈ 12.2 to 24.4 µM)
O=C1CNCCN1c1ccc(-c2ccc3c(c2)OC[C@H]2[C@H](CO)OC(=O)N32)cn1 [Compound 31, (3R,3aS)-3-(hydroxylmethyl)-7-(6-(2-oxopiperazin-1-yl)pyridin-3-yl)-3a,4-dihydrobenzo[b]oxazolo[3,4-d][1,4]oxazin-1(3H)-one]	2 to 4 µg/mL (≈ 5.05 to 10.1 µM)	2 to 4 µg/mL (≈ 5.05 to 10.1 µM)	2 to 4 µg/mL (≈ 5.05 to 10.1 µM)	4 µg/mL (≈ 10.1 µM)	2 to 4 µg/mL (≈ 5.05 to 10.1 µM)	16 µg/mL (≈ 40.4 µM)

From patent publication US9416144B2, “Benzoxazine oxazolidinone compound, preparation method and application thereof” (priority 2012, dated 2016)
